# Reference: PubChem BioAssay (NCI)
#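 Interpolation was linear, between the two tested concentrations surrounding the appropriate level; five concentrations were tested over 48 hours in 96-well plates. Here, GI50 denotes the concentration required for 50% inhibition of growth. Definition used: TGI = concentration required for complete inhibition of growth.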
# Experiments:
# Assay in all cases: NCI-60 cell line screen, 48 h
# DU-145 prostate = system: DU-145 prostate
# A549 NSCLC = system: A549 NSCLC
# OVCAR-3 ovarian = system: OVCAR-3 ovarian
# PC-3 prostate = system: PC-3 prostate
# SF-268 CNS = system: SF-268 CNS
# 786-0 renal = system: 786-0 renal
# UO-31 renal = system: UO-31 renal
# A498 renal = system: A498 renal
# HOP-62 NSCLC = system: HOP-62 NSCLC
# UACC-257 melanoma = system: UACC-257 melanoma
# SK-MEL-28 melanoma = system: SK-MEL-28 melanoma
# SK-OV-3 ovarian = system: SK-OV-3 ovarian
# ACHN renal = system: ACHN renal
# NCI-H460 lung = system: NCI-H460 lung
# MDA-MB-231 breast = system: MDA-MB-231 breast
# SF-539 CNS = system: SF-539 CNS
# HOP-92 NSCLC = system: HOP-92 NSCLC
# TK-10 renal = system: TK-10 renal
# SW-620 colon = system: SW-620 colon
compound,measurement,setting,value
Fc1ccc2c(c1)c(-c1nc(-c3c[nH]c4ncccc34)cs1)cn2CCCCN1CCCCC1,GI50,DU-145 prostate,1760 nM
same,TGI,DU-145 prostate,3.21 µM
same,GI50,A549 NSCLC,1770 nM
same,TGI,A549 NSCLC,3.31 µM
same,GI50,OVCAR-3 ovarian,1750 nM
same,TGI,OVCAR-3 ovarian,3.2 µM
same,GI50,PC-3 prostate,1490 nM
same,TGI,PC-3 prostate,2890 nM
same,GI50,SF-268 CNS,1630 nM
same,TGI,SF-268 CNS,3.22 µM
same,GI50,786-0 renal,1620 nM
same,TGI,786-0 renal,3.07 µM
same,GI50,UO-31 renal,1230 nM
same,TGI,UO-31 renal,2570 nM
same,GI50,A498 renal,1510 nM
same,TGI,A498 renal,3.05 µM
same,GI50,HOP-62 NSCLC,1530 nM
same,TGI,HOP-62 NSCLC,3.01 µM
same,GI50,UACC-257 melanoma,1760 nM
same,TGI,UACC-257 melanoma,3.33 µM
same,GI50,SK-MEL-28 melanoma,1780 nM
same,TGI,SK-MEL-28 melanoma,3.32 µM
same,GI50,SK-OV-3 ovarian,1720 nM
same,TGI,SK-OV-3 ovarian,3.14 µM
same,GI50,ACHN renal,1670 nM
same,TGI,ACHN renal,3.1 µM
same,GI50,NCI-H460 lung,1810 nM
same,TGI,NCI-H460 lung,3.47 µM
same,GI50,MDA-MB-231 breast,1610 nM
same,TGI,MDA-MB-231 breast,3.04 µM
same,GI50,SF-539 CNS,1610 nM
same,TGI,SF-539 CNS,3.02 µM
same,GI50,HOP-92 NSCLC,1160 nM
same,TGI,HOP-92 NSCLC,2480 nM
same,GI50,TK-10 renal,2300 nM
same,TGI,TK-10 renal,3.89 µM
same,GI50,SW-620 colon,1740 nM
same,TGI,SW-620 colon,3.24 µM
